According to ChEMBL document CHEMBL1201862, “PubChem BioAssay data set” (2004):
Calls of active or inactive are those of the source.

Key:
[1] = target: Cytochrome P450 2D6 (Homo sapiens, UniProt P10635);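 also: CYP2D6 member of a cytochrome P450 panel assay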
[2] = Shn3 3'UTR reporter inhibitors, dose response, cell-based, Clone20 osteoblasts, firefly luciferase, cherry-picked (AID 624132); type: functional;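 also: firefly luciferase luminescence from reporter carrying the Shn3 3'UTR in osteoblasts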
[3] = target: T1, Heat shock factor protein 1 (Mus musculus, UniProt P38532); test: inhibition of MG132-induced HSE-luciferase signal, confirmation, cell-based, NIH3T3, luminescence, dose retest (AID 2382); type: functional;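 also: NIH3T3 fibroblasts with HSF1-driven luciferase reporter stressed by proteasome inhibitor MG132; luminescence from HSF1-driven luciferase expression after 8 hours of MG132 stress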
T1 sequence (P38532 whole entry): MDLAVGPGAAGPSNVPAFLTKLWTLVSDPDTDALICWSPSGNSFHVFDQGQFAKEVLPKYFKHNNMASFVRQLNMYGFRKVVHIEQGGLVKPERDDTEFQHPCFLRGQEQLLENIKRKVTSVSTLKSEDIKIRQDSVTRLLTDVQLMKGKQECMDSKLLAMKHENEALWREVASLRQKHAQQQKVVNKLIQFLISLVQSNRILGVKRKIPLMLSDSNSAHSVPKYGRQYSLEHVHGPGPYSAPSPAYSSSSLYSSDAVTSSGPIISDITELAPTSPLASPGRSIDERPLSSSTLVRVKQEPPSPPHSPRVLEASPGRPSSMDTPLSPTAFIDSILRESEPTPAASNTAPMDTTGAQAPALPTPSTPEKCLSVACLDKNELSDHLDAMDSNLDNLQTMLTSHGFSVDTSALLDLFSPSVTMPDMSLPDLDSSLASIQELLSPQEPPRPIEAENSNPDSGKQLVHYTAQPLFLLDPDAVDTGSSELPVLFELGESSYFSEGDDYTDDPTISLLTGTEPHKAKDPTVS

[4] = system: Streptococcus sp. 'group A'; test: growth inhibition of control SK(-) GAS strain, dose response, counter-screen for streptokinase expression inhibitor project, luminescence, kanamycin, BacTiterGlo, confirmation (AID 1900); type: functional, organism-based
[5] = target: T2, Streptokinase A (Streptococcus pyogenes serotype M1, UniProt P10520); test: S. pyogenes streptokinase expression inhibitors, potency, dose response, plasminogen activation absorbance, OD405 (AID 1914); type: functional, Streptococcus pyogenes M1 GAS;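 also: secreted streptokinase activity via plasminogen activation per viability signal from cell pellet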
T2 sequence (P10520 whole entry): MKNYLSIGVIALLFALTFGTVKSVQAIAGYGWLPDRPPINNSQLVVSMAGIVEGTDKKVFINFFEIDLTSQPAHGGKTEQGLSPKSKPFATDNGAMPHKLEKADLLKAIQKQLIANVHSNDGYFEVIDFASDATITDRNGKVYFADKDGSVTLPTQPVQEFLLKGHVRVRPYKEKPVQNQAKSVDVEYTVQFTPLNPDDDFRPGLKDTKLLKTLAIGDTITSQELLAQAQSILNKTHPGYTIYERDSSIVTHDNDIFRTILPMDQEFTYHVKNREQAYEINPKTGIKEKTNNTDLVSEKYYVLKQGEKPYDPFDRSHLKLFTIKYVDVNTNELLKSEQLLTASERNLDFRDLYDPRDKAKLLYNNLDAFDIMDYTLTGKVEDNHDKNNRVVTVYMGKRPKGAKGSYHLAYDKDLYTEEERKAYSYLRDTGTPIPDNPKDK

[6] = system: Streptococcus; test: Group A Streptococcus viability loss, dose response, counter-screen for streptokinase expression inhibitor project, luminescence, BacTiterGlo (AID 1915); type: functional, organism-based;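 also: potency for reduction of bacterial viability or growth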
[7] = target: T3, Corticotropin-releasing factor receptor 2/Corticotropin-releasing factor-binding protein (Homo sapiens, UniProt P24387+Q13324); test: Dose Response confirmation of uHTS hits for small molecule antagonists of the CRF-binding protein and CRF-R2 receptor complex.; type: functional; conditions: read-out: IC50_Mean
T3 sequence (Q13324 whole entry): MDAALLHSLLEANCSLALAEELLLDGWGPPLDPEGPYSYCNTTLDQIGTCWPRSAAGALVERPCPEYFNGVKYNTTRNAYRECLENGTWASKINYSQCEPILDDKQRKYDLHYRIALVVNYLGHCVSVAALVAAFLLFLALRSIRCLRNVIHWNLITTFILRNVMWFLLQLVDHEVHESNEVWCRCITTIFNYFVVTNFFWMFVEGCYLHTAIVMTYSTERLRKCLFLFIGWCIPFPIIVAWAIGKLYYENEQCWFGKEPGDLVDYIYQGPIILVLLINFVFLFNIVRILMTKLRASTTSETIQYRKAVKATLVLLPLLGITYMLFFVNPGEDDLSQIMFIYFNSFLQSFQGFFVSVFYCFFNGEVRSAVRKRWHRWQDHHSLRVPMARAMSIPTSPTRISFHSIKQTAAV
T3 sequence (P24387 whole entry): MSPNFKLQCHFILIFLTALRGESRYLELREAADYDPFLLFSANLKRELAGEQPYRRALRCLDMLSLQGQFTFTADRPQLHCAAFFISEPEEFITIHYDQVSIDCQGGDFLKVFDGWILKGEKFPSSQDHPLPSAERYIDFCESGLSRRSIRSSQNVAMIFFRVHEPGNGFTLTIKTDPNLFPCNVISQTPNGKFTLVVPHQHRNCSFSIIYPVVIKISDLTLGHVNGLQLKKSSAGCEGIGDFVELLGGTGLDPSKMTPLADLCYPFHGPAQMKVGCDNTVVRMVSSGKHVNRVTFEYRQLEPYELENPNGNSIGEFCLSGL

[8] = target: T3, Corticotropin-releasing factor receptor 2/Corticotropin-releasing factor-binding protein; test: activators of CRF receptor 2 with binding protein – uHTS hits, confirmation (AID 602473); type: functional; conditions: read-out: EC50_Mean
[9] = target: Cytochrome P450 3A4 (Homo sapiens, UniProt P08684);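 also: CYP3A4 tested as one member of a cytochrome P450 panel screen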
[10] = target: Cytochrome P450 2C19 (Homo sapiens, UniProt P33261); test: Cytochrome panel assay with activity outcomes. Panel member name: p450-cyp2c19 Compounds with AC50 equal or less than 10 uM are considered active; type: functional; conditions: read-out: AC50
[11] = Luminescence Cell-Based Dose Response HTS to Identify Activators of Luciferase Translation or Activity in H4 […] Cells. [Related pubchem assays: 1829 (Project Summary), 1814 (Primary HTS)]; type: functional
[12] = system: H4; test: Luminescence Cell-Based Dose Response HTS to Identify Activators of 5'UTR Stem-Loop Driven Prion Protein mRNA Translation in H4 Neuroglioblastoma Cells. [Related pubchem assays: 1829 (Project Summary), 1814 (Primary HTS)]; type: functional; conditions: Homo sapiens
[13] = target: Cytochrome P450 2C9 (Homo sapiens, UniProt P11712)
Chain of Cytochrome P450 2C9 (P11712 whole entry): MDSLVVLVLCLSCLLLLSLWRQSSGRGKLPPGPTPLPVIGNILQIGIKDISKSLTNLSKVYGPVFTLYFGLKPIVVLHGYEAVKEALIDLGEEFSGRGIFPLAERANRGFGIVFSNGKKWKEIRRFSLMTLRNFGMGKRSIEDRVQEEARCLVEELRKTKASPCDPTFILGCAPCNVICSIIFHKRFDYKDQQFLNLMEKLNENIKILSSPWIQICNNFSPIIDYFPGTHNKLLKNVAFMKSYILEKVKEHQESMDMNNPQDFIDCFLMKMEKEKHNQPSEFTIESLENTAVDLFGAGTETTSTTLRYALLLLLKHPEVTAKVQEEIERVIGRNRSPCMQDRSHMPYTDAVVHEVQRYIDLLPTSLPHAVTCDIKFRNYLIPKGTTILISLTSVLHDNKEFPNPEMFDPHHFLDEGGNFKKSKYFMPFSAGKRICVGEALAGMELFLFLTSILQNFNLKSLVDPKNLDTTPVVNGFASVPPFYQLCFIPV

Chain of Cytochrome P450 2C19 (P33261 whole entry): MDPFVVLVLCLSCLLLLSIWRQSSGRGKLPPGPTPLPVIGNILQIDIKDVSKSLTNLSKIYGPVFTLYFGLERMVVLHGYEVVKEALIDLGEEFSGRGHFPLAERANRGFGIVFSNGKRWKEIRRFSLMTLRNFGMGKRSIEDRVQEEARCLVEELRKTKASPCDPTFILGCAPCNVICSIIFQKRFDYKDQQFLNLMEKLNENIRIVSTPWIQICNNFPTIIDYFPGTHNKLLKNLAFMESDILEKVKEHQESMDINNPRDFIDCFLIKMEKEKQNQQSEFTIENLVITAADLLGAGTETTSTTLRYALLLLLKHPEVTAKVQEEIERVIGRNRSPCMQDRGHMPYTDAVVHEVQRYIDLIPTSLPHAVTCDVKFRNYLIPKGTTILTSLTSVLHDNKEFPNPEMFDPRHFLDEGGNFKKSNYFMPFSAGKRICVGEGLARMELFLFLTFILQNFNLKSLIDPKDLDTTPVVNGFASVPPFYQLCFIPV
Chain of Cytochrome P450 3A4 (P08684 whole entry): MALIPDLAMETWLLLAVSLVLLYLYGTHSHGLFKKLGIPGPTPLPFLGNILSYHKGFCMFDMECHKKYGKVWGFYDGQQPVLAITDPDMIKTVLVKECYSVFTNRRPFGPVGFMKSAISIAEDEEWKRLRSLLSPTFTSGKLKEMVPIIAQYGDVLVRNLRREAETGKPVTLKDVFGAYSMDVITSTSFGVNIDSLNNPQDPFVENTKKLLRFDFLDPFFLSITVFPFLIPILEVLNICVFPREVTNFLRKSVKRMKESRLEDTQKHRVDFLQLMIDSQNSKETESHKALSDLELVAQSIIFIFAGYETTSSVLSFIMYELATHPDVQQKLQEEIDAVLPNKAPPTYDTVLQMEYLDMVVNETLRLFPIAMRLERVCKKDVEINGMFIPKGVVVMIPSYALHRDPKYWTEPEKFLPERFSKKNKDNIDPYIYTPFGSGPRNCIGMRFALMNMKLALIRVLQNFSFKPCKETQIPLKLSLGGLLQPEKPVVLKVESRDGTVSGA
Chain of Cytochrome P450 2D6 (P10635 whole entry): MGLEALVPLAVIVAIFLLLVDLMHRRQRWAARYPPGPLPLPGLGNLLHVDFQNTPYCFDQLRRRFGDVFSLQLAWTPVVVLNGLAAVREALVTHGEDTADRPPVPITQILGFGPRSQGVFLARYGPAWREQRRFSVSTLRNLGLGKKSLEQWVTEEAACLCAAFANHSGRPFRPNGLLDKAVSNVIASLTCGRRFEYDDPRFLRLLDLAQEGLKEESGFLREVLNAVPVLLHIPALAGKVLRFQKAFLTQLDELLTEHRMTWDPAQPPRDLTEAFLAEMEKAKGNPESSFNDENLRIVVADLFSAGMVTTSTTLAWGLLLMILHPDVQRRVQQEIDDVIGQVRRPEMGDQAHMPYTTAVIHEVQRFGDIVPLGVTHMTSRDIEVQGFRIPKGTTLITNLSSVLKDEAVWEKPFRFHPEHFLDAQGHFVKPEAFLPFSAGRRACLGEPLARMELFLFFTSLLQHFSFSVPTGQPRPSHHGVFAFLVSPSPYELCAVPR

Compound: COc1ccc2[nH]cc(CCNc3cc(-c4cccc(C#N)c4)ncn3)c2c1
- AC50 [1]: 20 µM (inconclusive)

Compound: CCN(CC)C(=O)C1CCCN(c2ccc([N+](=O)[O-])cc2[N+](=O)[O-])C1 (configuration not stated)
- AC50 [2]: 52.4 µM (active)

Compound: CCn1c(SCC(=O)NC2CCCCC2)nc2c(c1=O)SC(C)C2 (configuration not stated)
- AC50 [1]: 1.58 µM (inconclusive)

Compound: Cc1cccc(C)c1OCC(=O)NCc1ccccc1
- EC50 [3]: > 195 µM (not active)

Compound: CCN(CC(=O)N1CCCC1)S(=O)(=O)c1ccc(F)cc1
- EC50 [3]: > 195 µM (not active)

Compound: CCOc1cc(N2CCOCC2)c(OCC)cc1NC(=O)C1=NN(c2cccc(C)c2)C(=O)CC1
- EC50 [4]: 13.8 µM (active)
- EC50 [5]: > 150 µM (not active)
- EC50 [6]: 123 µM (active)

Compound: CCOc1ccccc1N1CCN(C(=O)Cc2ccc(S(=O)(=O)N3CCOCC3)s2)CC1
- IC50 [7]: > 47.1 µM (inactive)
- EC50 [8]: > 53 µM (inactive)

Compound: Cc1ccc(N2CC(C(=O)Nc3nc4ccc(S(C)(=O)=O)cc4s3)CC2=O)cc1 (configuration not stated)
- EC50 [3]: > 195 µM (not active)

Compound: Cc1ccc2[nH]c(C(=O)N/N=C/c3ccccc3C(=O)O)c(-c3ccccc3)c2c1
- EC50 [8]: 5.26 µM (active)

Compound: Cc1ccc2c(Cl)cc(Cl)c(OCC(=O)NC(C)(C)C)c2n1
- EC50 [4]: 12.7 µM (active)
- EC50 [5]: > 150 µM (not active)
- EC50 [6]: > 150 µM (not active)

Compound: O=C(Oc1ccccc1)N1CCC2(CCCN(Cc3ccccc3)C2)CC1
- AC50 [1]: 10 µM (inconclusive)
- AC50 [9]: 12.6 µM (inconclusive)

Compound: COc1ccc(NC(=O)c2nc3nccc(C)n3n2)cc1S(=O)(=O)N1CCOCC1
- IC50 [7]: > 47.1 µM (inactive)
- EC50 [8]: > 53 µM (inactive)

Compound: CCC1(C)Cc2c(sc3nc(SC)nc(S)c23)CO1 (configuration not stated)
- EC50 [4]: 1.84 µM (active)
- EC50 [5]: > 150 µM (not active)
- EC50 [6]: > 150 µM (not active)

Compound: COc1ccccc1C(=O)NCCn1cc(SCC(=O)Nc2nnc(C)s2)c2ccccc21
- AC50 [1]: 28.2 µM (inconclusive)

Compound: COc1ccc(CN(CCCN2CCOCC2)C(=O)Nc2cccc(Cl)c2)cc1OC
- EC50 [3]: > 195 µM (not active)

Compound: CCN(CC)S(=O)(=O)c1cccc(NC(=O)CCNC(=O)NC23CC4CC(CC(C4)C2)C3)c1
- EC50 [3]: > 195 µM (not active)

Compound: COc1ccccc1-c1nnc(SC2CCc3ccccc3NC2=O)s1 (configuration not stated)
- EC50 [3]: > 195 µM (not active)

Compound: CC(Oc1ccc(Cl)cc1Cl)C(=O)NC1=NN(c2ccccc2)C(=O)C1 (configuration not stated)
- EC50 [4]: 3.04 µM (active)
- EC50 [5]: 123 µM (inconclusive)
- EC50 [6]: 6.39 µM (active)

Compound: CC1CN(C2CCN(C(=O)c3cccc(Cl)c3)CC2)CC(C)O1 (configuration not stated)
- AC50 [10]: 5.62 µM (inconclusive)
- AC50 [1]: 0.891 µM (inconclusive)

Compound: CS(=O)(=O)Nc1cccc(-c2ccc3ncnc(Nc4ccc(F)cc4)c3c2)c1
- AC50 [1]: 39.8 µM (inconclusive)

Compound: CC1CN(S(=O)(=O)c2ccc(C(=O)N3CCc4ccccc43)cc2)CC(C)O1 (configuration not stated)
- IC50 [7]: > 47.1 µM (inactive)
- EC50 [8]: > 53 µM (inactive)

Compound: O=C(NC1(C(F)(F)F)C(=O)Nc2c1c(=O)[nH]c(=O)n2Cc1ccccc1)c1ccc(Cl)cc1 (configuration not stated)
- IC50 [7]: > 47.1 µM (inactive)
- EC50 [8]: > 53 µM (inactive)

Compound: COc1cccc(C(C(=O)Nc2ccc(F)cc2)N(C(=O)Cn2nnc3ccccc32)C2CC2)c1 (configuration not stated)
- AC50 [1]: 25.1 µM (inconclusive)

Compound: CC(=O)Nc1ccc(NC(=O)COc2ccc([N+](=O)[O-])cc2)cc1
- IC50 [7]: > 47.1 µM (inactive)
- EC50 [8]: > 53 µM (inactive)

Compound: CC(NC(=O)COC(=O)c1ccc2c(=O)n3c(nc2c1)CCCCC3)c1ccccc1 (configuration not stated)
- IC50 [7]: > 47.1 µM (inactive)
- EC50 [8]: > 53 µM (inactive)

Compound: CCOc1ccc(C(=O)NC(=S)Nc2ccc(NC(=O)CC)cc2)cc1[N+](=O)[O-]
- EC50 [4]: 4.28 µM (active)
- EC50 [5]: > 150 µM (not active)
- EC50 [6]: 64.4 µM (active)

Compound: c1ccc2c(NCCN3CCOCC3)nc(-c3ccoc3)nc2c1
- AC50 [1]: 25.1 µM (inconclusive)
- AC50 [9]: 15.8 µM (inconclusive)

Compound: Cc1[nH]c2ccccc2c1C(C[N+](=O)[O-])c1cccs1 (configuration not stated)
- EC50 [3]: > 195 µM (not active)

Compound: COc1ccc(S(=O)(=O)N2CCN(C(=O)CCCN3C(=O)NC4(CCCC4)C3=O)CC2)cc1
- IC50 [7]: > 47.1 µM (inactive)
- EC50 [8]: > 53 µM (inactive)

Compound: CC(C)(C)c1cc(NCc2ccccn2)n2ncc(-c3ccc(Cl)cc3)c2n1
- EC50 [4]: 2.44 µM (active)
- EC50 [5]: > 150 µM (not active)
- EC50 [6]: 3.1 µM (active)

Compound: CCCc1ccc2oc(C(=O)N3CCC[C@H]3CO)c(C)c2c1
- EC50 [11]: 1.11 µM (active)
- EC50 [12]: > 120 µM (not active)

Compound: CCCC(c1cc(C(C)(C)C)c(O)cc1C)c1cc(C(C)(C)C)c(O)cc1C
- AC50 [10]: 6.31 µM (inconclusive)
- AC50 [1]: 3.98 µM (inconclusive)
- AC50 [13]: 3.16 µM (inconclusive)

Compound: CC(N1CCOC1=O)S(=O)(=O)c1ccccc1 (configuration not stated)
- EC50 [3]: > 195 µM (not active)

Compound: Cc1ccc(C(=O)OCn2nnc3ccccc3c2=O)cc1[N+](=O)[O-]
- IC50 [7]: > 47.1 µM (inactive)
- EC50 [8]: > 53 µM (inactive)

Compound: Cc1ccnn2cc3c(=O)n(C)c(=O)n(C)c3c12
- AC50 [1]: 20 µM (inconclusive)
- AC50 [13]: 11.2 µM (inconclusive)

Compound: Cc1ccc(C(=O)Nc2nc3ccccc3n3nnnc23)cc1
- AC50 [10]: 14.1 µM (inconclusive)
- AC50 [1]: 12.6 µM (inconclusive)
- AC50 [9]: 10 µM (inconclusive)

Compound: CC(C)(C)NC(=O)/C(=C/c1ccccc1F)NC(=O)c1ccc([N+](=O)[O-])cc1
- IC50 [7]: > 47.1 µM (inactive)
- EC50 [8]: > 53 µM (inactive)

Compound: COc1ccc(N(C)C(=O)CN(C)S(=O)(=O)c2ccc3c(c2)c(=O)n(C)c(=O)n3C)c(OC)c1
- EC50 [3]: 120 µM (active)

Compound: COc1ccc(S(=O)(=O)N(C)CC(=O)NC2CCCCC2)cc1OC
- IC50 [7]: > 47.1 µM (inactive)
- EC50 [8]: > 53 µM (inactive)

Compound: CCOC(=O)C1CCCN(C(=O)COC(=O)c2cccs2)C1 (configuration not stated)
- IC50 [7]: > 47.1 µM (inactive)
- EC50 [8]: > 53 µM (inactive)

Compound: CN1[C@@H]2CC[C@H]1C[C@@H](OC(=O)c1c[nH]c3ccccc13)C2 [TROPISETRON]
- AC50 [1]: 31.6 µM (inconclusive)

Compound: OCCNc1nc(SCc2ccccc2)nc2sc3c(c12)CCC3
- AC50 [1]: 25.1 µM (inconclusive)

Compound: COC(=O)c1ccc(C(NC(=O)c2ccco2)[C@]2(C)C[C@H]2C2CCCCC2)cc1 (some centres not stated)
- AC50 [1]: 12.6 µM (inconclusive)

Compound: COc1ccc(CC(=O)N/N=C(\C)c2ccc(Br)s2)cc1
- IC50 [7]: > 47.1 µM (inactive)
- EC50 [8]: > 53 µM (inactive)
